Assay results published in patent US8338441B2, “Inhibitors of human immunodeficiency virus replication” (priority 2009, dated 2012).

System: HIV-1 NL4.3 strain
Assay: C8166 HIV-1 Luciferase Assay (EC50)
Format: cell-based
Conditions: Human immunodeficiency virus 1, C8166, 72 h, read-out: Antiviral potency EC50
Text: C8166 HIV-1 Luciferase Assay (EC50)
C8166 cells are derived from a human T-lymphotrophic virus type 1 immortalized but nonexpressing line of cord blood lymphocytes (obtained from J. Sullivan and originally produced in the laboratory of R. Gallo, Virology 1983; 129: 51-64) and are highly permissive to HIV-1 infection. The pGL3 Basic LTR/TAR plasmid is made by introducing the HIV-1 HxB2 LTR sequence from nucleotide −138 to +80 (Sca1-HindIII) upstream of the luciferase gene in the pGL3 Basic Vector (a promoterless luciferase expression vector from Promega catalogue # E1751) with the gene for blasticidine resistance cloned in. The reporter cells are made by electroporating C8166 cells with pGL3 Basic LTR/TAR and selecting positive clones with blasticidine. Clone C8166-LTRIuc #A8-F5-G7 is selected by 3 consecutive rounds of limiting dilution under blasticidine selection. Cultures are maintained in complete media (consisting of: Roswell Park Memorial Institute medium (RPMI) 1640+10% FBS+10^−5 M β-mercaptoethanol+10 μg/ml gentamycin) with 5 μg/ml blasticidine, however, blasticidine selection is removed from the cells before performing the viral replication assay.
Luciferase Assay Protocol
Serial dilutions of HIV-1 inhibitor compounds are prepared in complete media from 10 mM DMSO stock solutions. Eleven serial dilutions of 2.5× are made at 8× desired final concentration in a 1 mL deep well titer plate (96 wells). The 12th well contains complete media with no inhibitor and serves as the positive control. All samples contain the same concentration of DMSO (≦0.1% DMSO). A 25 μL aliquot of inhibitor is added, to triplicate wells, of a 96 well tissue culture treated clear view black microtiter plate (Corning Costar catalogue # 3904). The total volume per well is 200 μL of media containing cells and inhibitor. The last row is reserved for uninfected C8166 LTRluc cells to serve as the background blank control and the first row is media alone.
C8166 LTRluc cells are counted and placed in a minimal volume of complete RPMI 1640 in a tissue culture flask (ex. 30×10^6 cells in 10 mL media/25 cm^2 flask). Cells are infected with HIV-1 or virus with variant integrase generated as described below at a […] (moi) of 0.005. Cells are incubated for 1.5 hours at 37° C. on a rotating rack in a 5% CO2 incubator and re-suspended in complete RPMI to give a final concentration of 25,000-cells/175 μL. 175 μL of cell mix is added to wells of a 96 well microtiter plate containing 25 μL 8× inhibitors. 25,000 uninfected C8166-LTRluc cells/well in 200 μL complete RPMI are added to the last row for background control. Cells are incubated at 37° C. in 5% CO2 incubator for 3 days.
50 μL Steady Glo (luciferase substrate T1/2=5 hours Promega catalogue # E2520) is added to each well of the 96 well plate. The relative light units (RLU) of luciferase is determined using the LUMIstar Galaxy luminometer (BMG LabTechnologies). Plates are read from the bottom for 2 seconds per well with a gain of 240.
The level of inhibition (% inhibition) of each well containing inhibitor is calculated as follows: […]
The calculated % inhibition values are used to determine EC50, slope factor (n) and maximum inhibition (Imax) by the non-linear regression routine NLIN procedure of SAS using the following equation: […]

`Cc1nc(-c2cccc(Br)c2)c(C)c(-c2ccc3c(c2)CCCO3)c1[C@H](OC(C)(C)C)C(=O)O` [compound 1005] and `Cc1nc(-c2cccc(-c3cccnc3)c2)c(C)c(-c2ccc3c(c2)CCCO3)c1[C@H](OC(C)(C)C)C(=O)O` [compound 1009] are within 1.5-fold of each other in EC50: 0.019 µM for the first, 0.02 µM for the second.

First: CCCn1cc(-c2cccc(-c3nc(C)c([C@H](OC(C)(C)C)C(=O)O)c(-c4ccc5c(c4)CCCO5)c3C)c2)cn1 [compound 1011]
Second: Cc1nc(-c2cccc(-c3cncnc3)c2)c(C)c(-c2ccc3c(c2)CCCO3)c1[C@H](OC(C)(C)C)C(=O)O [compound 1017]
The EC50 of the first is 2.8-fold higher: 0.059 µM for the first, 0.021 µM for the second. The second is the more potent here.

First: Cc1n[nH]c(C)c1-c1cccc(-c2nc(C)c([C@H](OC(C)(C)C)C(=O)O)c(-c3ccc4c(c3)CCCO4)c2C)c1 [compound 1018]
Second: Cc1nc(-c2cccc(-c3ccnnc3)c2)c(C)c(-c2ccc3c(c2)CCCO3)c1[C@H](OC(C)(C)C)C(=O)O [compound 1020]
The EC50 of the first is 3.7-fold higher: 0.18 µM for the first, 0.049 µM for the second. The second is the more potent here.

`Cc1nc(-c2ccc(-c3cncnc3)cc2)c(C)c(-c2ccc3c(c2C)CCCO3)c1[C@H](OC(C)(C)C)C(=O)O` [compound 1102] and `Cc1ccc(-c2nc(C)c([C@H](OC(C)(C)C)C(=O)O)c(-c3ccc4c5c(ccnc35)CCO4)c2C)cc1C` [compound 1116] are within 1.5-fold of each other in EC50: 0.017 µM for the first, 0.013 µM for the second.

Compared with `Cc1ccc(-c2nc(C)c([C@H](OC(C)(C)C)C(=O)O)c(-c3ccc(Cl)cc3)c2C)cc1C` [compound 1111], `Cc1nc(-c2ccc3scnc3c2)c(C)c(-c2ccc(Cl)cc2)c1[C@H](OC(C)(C)C)C(=O)O` [compound 1141] is 1.7-fold higher in EC50: 0.015 µM for the first, 0.026 µM for the second.

Compared with `Cc1ccc(-c2nc(C)c([C@H](OC(C)(C)C)C(=O)O)c(-c3ccc4c(c3C)NCCO4)c2C)cc1C` [compound 1113], `Cc1nc(NC(=O)C(C)(C)C)c(C)c(-c2ccc3c(c2Cl)NCCO3)c1[C@H](OC(C)(C)C)C(=O)O` [compound 1242] is 29-fold higher in EC50: 0.0077 µM for the first, 0.22 µM for the second.

Compared with `Cc1nc(-c2cccc(-c3ccnn3C)c2)c(C)c(-c2ccc(Cl)cc2)c1[C@H](OC(C)(C)C)C(=O)O` [compound 1124], `Cc1nc(-c2nc3ccc(Cl)cc3n2C)c(C)c(-c2ccc(Cl)cc2)c1[C@H](OC(C)(C)C)C(=O)O` [compound 1437] is 110-fold lower in EC50: 0.081 µM for the first, 0.00075 µM for the second.

Compared with `Cc1nc(C(=O)N[C@H]2CC[C@H](C)CC2)c(C)c(-c2ccc3c(c2)CCCO3)c1[C@H](OC(C)(C)C)C(=O)O` [compound 1127], `Cc1nc(C(=O)N[C@H]2CC[C@H](C)CC2)c(C)c(-c2ccc(Cl)cc2)c1[C@H](OC(C)(C)C)C(=O)O` [compound 1142] is 1.8-fold higher in EC50: 0.0045 µM for the first, 0.0079 µM for the second.

Compared with `Cc1nc(-c2ccc(OC(F)(F)F)cc2)c(C)c(-c2ccc(Cl)cc2)c1[C@H](OC(C)(C)C)C(=O)O` [compound 1132], `Cc1nc(C(=O)Nc2ccc(C(F)(F)F)nc2)c(C)c(-c2ccc(Cl)cc2)c1[C@H](OC(C)(C)C)C(=O)O` [compound 1280] is 2.3-fold higher in EC50: 0.0094 µM for the first, 0.022 µM for the second. The first is the more potent here.

`Cc1nc(C(=O)NC(C)(C)C)c(C)c(-c2ccc(Cl)cc2)c1[C@H](OC(C)(C)C)C(=O)O` [compound 1143] and `Cc1nc(NC(=O)C(C)(C)C)c(C)c(-c2ccc(Cl)cc2)c1[C@H](OC(C)(C)C)C(=O)O` [compound 1202] are within 1.5-fold of each other in EC50: 0.021 µM for the first, 0.031 µM for the second.

Compared with `Cc1nc(C(=O)NC2Cc3ccccc3C2)c(C)c(-c2ccc(Cl)cc2)c1[C@H](OC(C)(C)C)C(=O)O` [compound 1145], `Cc1nc(C(=O)NCCc2ccccc2)c(C)c(-c2ccc(Cl)cc2)c1[C@H](OC(C)(C)C)C(=O)O` [compound 1146] is 2.1-fold lower in EC50: 0.035 µM for the first, 0.017 µM for the second.

Compared with `Cc1nc(C(=O)NC2CCCCCC2)c(C)c(-c2ccc(Cl)cc2)c1[C@H](OC(C)(C)C)C(=O)O` [compound 1147], `Cc1nc(C(=O)N[C@@H](C)C2CCCCC2)c(C)c(-c2ccc(Cl)cc2)c1[C@H](OC(C)(C)C)C(=O)O` [compound 1152] is 2.2-fold higher in EC50: 0.0069 µM for the first, 0.015 µM for the second.

Compared with `Cc1nc(C(=O)NC(C)(C)c2ccccc2)c(C)c(-c2ccc(Cl)cc2)c1[C@H](OC(C)(C)C)C(=O)O` [compound 1154], `Cc1ccc(NC(=O)c2nc(C)c([C@H](OC(C)(C)C)C(=O)O)c(-c3ccc(Cl)cc3)c2C)cc1` [compound 1167] is 2.9-fold lower in EC50: 0.027 µM for the first, 0.0093 µM for the second. The second is the more potent here.

`CC[C@@H](C)NC(=O)c1nc(C)c([C@H](OC(C)(C)C)C(=O)O)c(-c2ccc(Cl)cc2)c1C` [compound 1160] and `Cc1nc(C(=O)NCC2CCC2)c(C)c(-c2ccc(Cl)cc2)c1[C@H](OC(C)(C)C)C(=O)O` [compound 1307] are within 1.5-fold of each other in EC50: 0.016 µM for the first, 0.017 µM for the second.

First: Cc1nc(C(=O)NC2CCC(C(C)(C)C)CC2)c(C)c(-c2ccc(Cl)cc2)c1[C@H](OC(C)(C)C)C(=O)O (stereo partly drawn) [compound 1161]
Second: Cc1nc(C(=O)NC2CCC3(CC2)CC3)c(C)c(-c2ccc(Cl)cc2)c1[C@H](OC(C)(C)C)C(=O)O [compound 1444]
The EC50 of the first is 2.9-fold higher: 0.027 µM for the first, 0.0092 µM for the second.

`Cc1nc(C(=O)NC2CCCCCC2)c(C)c(-c2ccc3c(c2C)NCCO3)c1[C@H](OC(C)(C)C)C(=O)O` [compound 1192] and `Cc1nc(C(=O)NCC2CCCC2)c(C)c(-c2ccc3c(c2Cl)NCCO3)c1[C@H](OC(C)(C)C)C(=O)O` [compound 1256] are within 1.5-fold of each other in EC50: 0.0083 µM for the first, 0.0081 µM for the second.

Compared with `Cc1nc(C(=O)NCC2CCCC2)c(C)c(-c2ccc(Cl)cc2)c1[C@H](OC(C)(C)C)C(=O)O` [compound 1208], `Cc1nc(C(=O)NCC2CCCC2)c(C)c(-c2ccc3c(c2)NCCO3)c1[C@H](OC(C)(C)C)C(=O)O` [compound 1293] is 2.7-fold higher in EC50: 0.0089 µM for the first, 0.024 µM for the second.

Going from `Cc1nc(C(=O)Nc2ccc3ncccc3c2)c(C)c(-c2ccc(Cl)cc2)c1[C@H](OC(C)(C)C)C(=O)O` [compound 1275] to `Cc1nc2ccc(NC(=O)c3nc(C)c([C@H](OC(C)(C)C)C(=O)O)c(-c4ccc(Cl)cc4)c3C)cc2s1` [compound 1311], the EC50 rises from 0.0045 µM to 0.026 µM (5.8-fold). The first is the more potent here.

`Cc1nc(C(=O)Nc2nc3c(s2)CCC3)c(C)c(-c2ccc(Cl)cc2)c1[C@H](OC(C)(C)C)C(=O)O` [compound 1276] and `Cc1nc(C(=O)Nc2nnc(C3CC3)s2)c(C)c(-c2ccc(Cl)cc2)c1[C@H](OC(C)(C)C)C(=O)O` [compound 1316] are within 1.5-fold of each other in EC50: 0.068 µM for the first, 0.047 µM for the second.

Compared with `Cc1nc(C(=O)Nc2ccc(C(N)=O)nc2)c(C)c(-c2ccc(Cl)cc2)c1[C@H](OC(C)(C)C)C(=O)O` [compound 1283], `Cc1nc(C(=O)NCc2ccnc3ccccc23)c(C)c(-c2ccc(Cl)cc2)c1[C@H](OC(C)(C)C)C(=O)O` [compound 1442] is 8.8-fold lower in EC50: 0.14 µM for the first, 0.016 µM for the second.

Compared with `Cc1nc(C(=O)Nc2ccc(F)cn2)c(C)c(-c2ccc3c(c2)NCCO3)c1[C@H](OC(C)(C)C)C(=O)O` [compound 1290], `Cc1nc(-c2cn3cc(Cl)ccc3n2)c(C)c(-c2ccc(Cl)cc2)c1[C@H](OC(C)(C)C)C(=O)O` [compound 1438] is 12-fold lower in EC50: 0.011 µM for the first, 0.00094 µM for the second. The second is the more potent here.

`COc1ccc2nc(-c3nc(C)c([C@H](OC(C)(C)C)C(=O)O)c(-c4ccc(Cl)cc4)c3C)n(C)c2c1` [compound 1439] and `COc1cc2nc(-c3nc(C)c([C@H](OC(C)(C)C)C(=O)O)c(-c4ccc(Cl)cc4)c3C)n(C)c2cc1Cl` [compound 1441] are within 1.5-fold of each other in EC50: 0.004 µM for the first, 0.0049 µM for the second.

`CCn1c(-c2nc(C)c([C@H](OC(C)(C)C)C(=O)O)c(-c3ccc(Cl)cc3)c2C)nc2ccccc21` [compound 1440] and `Cc1nc(-c2nc3ccccc3n2CC2CC2)c(C)c(-c2ccc(Cl)cc2)c1[C@H](OC(C)(C)C)C(=O)O` [compound 1449] are within 1.5-fold of each other in EC50: 0.0024 µM for the first, 0.0018 µM for the second.

Compared with `[2H]C1([2H])C([2H])([2H])C([2H])([2H])C([2H])(NC(=O)c2nc(C)c([C@H](OC(C)(C)C)C(=O)O)c(-c3ccc(Cl)cc3)c2C)C([2H])([2H])C1([2H])[2H]` [compound 1443], `Cc1nc(-c2nc3ccc(Cl)cc3[nH]2)c(C)c(-c2ccc(Br)cc2)c1[C@H](OC(C)(C)C)C(=O)O` [compound 1447] is 19-fold lower in EC50: 0.0071 µM for the first, 0.00038 µM for the second. The second is the more potent here.

`Cc1nc(-c2nc3cc(Cl)ccc3[nH]2)c(C)c(-c2ccc(Cl)cc2F)c1[C@H](OC(C)(C)C)C(=O)O` [compound 1445] and `Cc1nc(-c2nc3cc(Cl)ccc3[nH]2)c(C)c(-c2ccccc2Cl)c1[C@H](OC(C)(C)C)C(=O)O` [compound 1446] are the same in EC50: 0.0019 µM for the first, 0.0019 µM for the second.

For `Cc1nc(-c2nc3ccccc3n2C)c(C)c(-c2ccc(Br)cc2)c1[C@H](OC(C)(C)C)C(=O)O` [compound 1448], the EC50 was 0.0014 µM.
